Results taken from patent US20240123022A1, “A STABLE ANTI-ANGIOGENIC AND ANTI-INFLAMMATORY PHARMACEUTICAL FORMULATION AND PHARMACEUTICAL COMBINATION FOR TREATMENT AND PREVENTION OF PSORIASIS” (priority 2021, published 2024).

Tests used:
[1] = test system: HaCaT cells; test: TUNEL assay; format: cell-based, human; conditions: 48 h
Procedure: Terminal deoxynucleotidyl transferase (TdT) dUTP Nick-End Labeling (TUNEL) assay has been designed to detect apoptotic cells that undergo extensive DNA degradation during the late stages of apoptosis. […] Cells were treated with test item (IS217 of 100 μg/ml-5000 μg/ml) and positive controls like curcumin (10 μM and 20 μM), anthralin (1 μM) and betullininc acid (10 μg/ml, 20 μg/ml, 50 μg/ml). After about 48 hours of treatment, cells were analysed for the apoptotic effect via TUNEL assay. Absorbance was measured using ELISA reader (Table 1).

[2] = test system: IL-17 secretion; test: IL-17 inhibition in ConA stimulated splenocytes (ELISA); format: cell-based, C57BL/6 mice; conditions: Mus musculus, Splenocyte, read-out: inhibition of IL-17 w.r.t. control (ConA) levels
Procedure: The study was conducted to assess anti-inflammatory potential of test item IS217 in murine splenocytes isolated from C57BL/6 mice for assessing percentage inhibition of IL-17 in splenocytes by using ELISA method. […] Curcumin was taken as positive control for in-house validation.
For determining inhibitory activity against IL-17 secretion level, splenocytes cells were treated with the concentration range of 10 to 5000 μg/ml along with Con A stimulation (5 μg/ml), Con A alone treated cells were used as a positive control. After incubating for about 24 hours, IL-17 levels were estimated by ELISA corresponding to non-cytotoxic concentrations at 10 to 2000 μg/ml and absorbance of samples was determined by using ELISA reader.

[3] = test system: IL-23 secretion; test: Inhibition of IL-23 secretion in monocytes THP-1 (LPS and IFN-γ, ELISA); format: cell-based, human
Procedure: The study was conducted to assess anti-inflammatory potential of test item, IS217 in human monocytic cell line (THP-1) by assessing percentage inhibition of IL-23 in monocytes by using ELISA method.
Curcumin was taken as positive control for in-house validation. For determining inhibitory activity against IL-23 secretion, human monocytic cell line (THP-1) was treated with concentration range of 10-5000 μg/ml with LPS (1 μg/ml) and IFN-γ. LPS (1 μg/ml) and IFN-γ (100 ng/ml) alone were taken as a positive control. After about 24 hours of incubation, IL-23 levels were estimated by ELISA in supernatants corresponding to non-cytotoxic concentrations at 10 to 5000 μg/ml and absorbance of samples was determined by using ELISA reader.

[4] = test system: VEGF secretion; test: cells; conditions: Homo sapiens, HaCaT, read-out: inhibition of VEGF
[5] = test system: human keratinocytes (HaCaT) cells; test: Cytotoxicity of methotrexate in combination with IS217, combination index method (MTT); format: cell-based; conditions: methotrexate alone 0.01-5 μM, 72 h
Procedure: Assessment of cytotoxicity of methotrexate in combination with IS217 on proliferation of human keratinocytes (HaCaT) cells was performed by using combination index method. HaCaT cell line is maintained by using DMEM, 10% FBS, CO2 incubator and after overnight incubation cells were replenished by using about 1% FBS and then the cells were treated with different concentrations (0.01, 0.1, 0.25, 0.5, 1, 5 μM) of methotrexate alone, IS217 (10, 50, 500, 1000, 2000, 5000 μg/ml) alone, combination of methotrexate (0.01, 0.1, 0.25, 0.5, 1, 5 μM) and IS217 (10, 50, 500, 1000, 2000, 5000 μg/ml) to achieve different combinations.
IS217 was added to the above combinations every 24 hours (i.e., three doses) whereas methotrexate was added only once in 72 hours during the 72 hours of incubation. Then the plates were subjected for MTT assay and percentage inhibition (cytotoxicity) corresponding to each treatment was calculated.

[6] = test system: TPA induced ear inflammation model in C57BL/6 mice; test: IS217 alone and in combination with methotrexate and betamethasone in TPA induced ear inflammation model; format: in vivo
Procedure: The experimental procedure, doses and route of administration were same as IMQ model. Test item IS217 was administered subcutaneously either alone or in combination with standard methotrexate (MTX) and betamethasone (BD) to diseased animals.

[7] = test system: VEGF secretion; test: Inhibition of VEGF secretion in HUVEC cells; format: cell-based, human; conditions: 1 mg/ml
Procedure: The study was conducted to evaluate anti-angiogenic effect of IS217 in HUVEC cells. […] Bevacizumab (1 mg/mL) was taken as positive control for validation purpose.

[8] = test system: HUVEC cells; test: Tube formation assay in HUVEC cells (VEGF induced); format: cell-based, human; set-up: Tube formation assay results, Avg: scale not given here
Procedure: HUVEC cells were used as test system to determine angiogenic effect of IS217 by assessing the inhibitory effects of test item on endothelial cells tube formation. Prior to the tube formation assay, test item of concentration ranging 0.01 μg/ml to 1000 μg/ml were used to treat endothelial cells for its cytotoxicity effect to assess suitable concentration for tube formation assay. […] The cells corresponding to positive control group were treated with bevacizumab of concentration 1000 μg/ml. The degree of angiogenesis progression was assessed based on visual pattern recognition of photomicrographs of HUVEC cells.

## O=C1c2c(O)cccc2Cc2cccc(O)c21 [Anthralin, reference compound]
[1]; 1 μM
  % increase in TUNEL-Positive cell population w.r.t. control (untreated cells): −87.0%

## C=C(C)[C@@H]1CC[C@]2(C(=O)O)CC[C@]3(C)[C@H](CC[C@@H]4[C@@]5(C)CC[C@H](O)C(C)(C)[C@@H]5CC[C@]43C)[C@@H]12 [BA, betullininc acid, reference compound]
[1]; 10 μg/ml
  % increase in TUNEL-Positive cell population w.r.t. control (untreated cells): 21.3%
[1]; 20 μg/ml
  % increase in TUNEL-Positive cell population w.r.t. control (untreated cells): 48.2%
[1]; 50 μg/ml
  % increase in TUNEL-Positive cell population w.r.t. control (untreated cells): 61.6%

## COc1cc(/C=C/C(=O)CC(=O)/C=C/c2ccc(O)c(OC)c2)ccc1O [Curcumin]
[1]; 10 μM
  % increase in TUNEL-Positive cell population w.r.t. control (untreated cells): −72.2%
[1]; 20 μM
  % increase in TUNEL-Positive cell population w.r.t. control (untreated cells): −76.1%
[2]; curcumin 1 μM
  inhibition at 1 µM: 40.5%
[2]; curcumin 10 μM
  inhibition at 10 µM: 42.5%
[3]; Homo sapiens, THP-1, curcumin 10 μM, read-out: inhibition of IL-23 w.r.t. control LPS and IFN-γ levels
  inhibition at 10 µM: 91.6%
[3]; curcumin, second concentration not given
  inhibition of IL-23 w.r.t. control LPS and IFN-γ levels: 90.6%
[4]
  inhibition at 1 µM: 22.8%

## CN(Cc1cnc2nc(N)nc(N)c2n1)c1ccc(C(=O)N[C@@H](CCC(=O)O)C(=O)O)cc1 [methotrexate, reference compound]
[5]
  50% inhibition of cell proliferation (IC50): not achieved
[6]; MTX 0.75 mg/kg
  inhibitory activity against TPA induced increase in ear thickness: 24.95%
[6]; MTX 1.5 mg/kg
  inhibitory activity against TPA induced increase in ear thickness: 46.06%

## CC1=C(/C=C/C(C)=C/C=C/C(C)=C/C(=O)O)C(C)(C)CCC1 [retinoic acid]
[4]
  inhibition at 1 µM: 22.8%

## Bevacizumab: positive control, commercial formulation Avastin®, anti-VEGF
[7]
  inhibition of VEGF: 94.51%
[8]; Bevacizumab + VEGF
  Tube formation assay results, Avg: 0.44
[8]; Bevacizumab, without VEGF
  Tube formation assay results, Avg: 0.33
[8]; HUVEC, bevacizumab 1000 μg/ml
  inhibition of tube formation as compared to VEGF stimulation control: 91.1%
